Source: patent publication US10208007B2, “Use of strigolactones and strigolactone analogs for treating proliferative conditions” (The State of Israel, Ministry of Agriculture & Rural …, priority 2011, dated 2019)
Values joined by “and” are separate entries in the source; they are usually repeats but may differ in a detail not shown here. Equal values may be shown once.

Tests used:
MDA-MB-231 cells = assay: Hoechst 33342 staining; type: cell-based, human; settings: 48 hours
Description: MDA-MB-231 cells were seeded out into 96 well plates in triplicate at 3000 cell per well. […] After 48 hours, the medium was aspirated off and 100 μl of Hoechst dye (2 μg/ml), diluted with the medium, was added to the cells and incubated for 15 minutes. Stained cells were observed under a fluorescence microscope (Zeiss 5 Instruments, Thornwood, N.Y.).

HCT116 cells = assay: Annexin V / PI staining; type: cell-based, human; settings: 48 hours, from 3.6%
Description: Cells were cultured for 48 hours under the same conditions as those used for the DNA content/cell cycle analysis. All the cells were collected and resuspended in 100 μl 1× Annexin V Binding Buffer (BD Biosciences, San Jose, Calif., USA). 2 μl FITC-Annexin V (BD Biosciences) was added and incubated for 10 min in the dark (room temperature). Cells were then stained with PI (Sigma, Saint Louis, Mo., USA) to a final concentration of 5 μg/ml and the cells were incubated at room temperature for 15 min in the dark. Then, 400 μl of Annexin V binding buffer were added and flow cytometry was performed using a BD FACSCalibur flow cytometer. Cells were considered to be apoptotic if they were Annexin V+/PI− (early apoptotic) and Annexin V+/PI+ (late apoptotic). Each analysis was performed using at least 20,000 events.
Chromosome condensation at mitosis is accompanied by phosphorylation of histone H3. Accordingly, in order to determine if cells were arresting at G2 or M phase, HCT116 cells were analyzed for pS10 Histone H3 following strigolactone analogs exposure. […] To further quantify whether the growth inhibition observed in-vitro following strigolactone treatment was due in part to apoptosis, HCT116 cells were dual stained with Annexin V and PI (Prodidium Iodide). Annexin V staining indicate the inversion of the inner leaflet of the plasma membrane an early event of apoptosis. Late apoptosis is characterized by loss of membrane integrity and cells become permeable to PI. […] Cells were incubated for 48 hours and then co-stained with annexin-V and PI (FIG. 12F). Following treatment with 10 ppm and 15 ppm MEB-55, the percentage of late apoptotic cell increased from 3.6% to 62% and 85% respectively (FIG. 12F, lower panel). […] Dual Annexin V/PI staining analysis was also carried out on two other colon cancer cell lines, (SW480, HT29) following strigolactone treatment. Increased apoptosis was also observed in these lines following MEB-55 treatment in a dose dependent manner (FIG. 12D).

pAKT = assay: Immunoblot with densitometric quantification; type: cell-based, human
Description: Protein concentration was determined using the BCA Protein Assay (Pierce), and 20-50 μg of lysate were separated in a 4-12% SDS-PAGE gel. After transfer, membranes were blocked for 15-30 min at room temperature in 5% BSA (Sigma) in Tris-buffered saline containing 0.1% Tween-20. Primary antibody was incubated for either 1.5 hours at room temperature or overnight at 4° C. Secondary antibody was incubated for 30-45 min at room temperature, and proteins were visualized with West Pico Stable (Pierce). All antibodies were used at 1:1000 dilution unless otherwise stated. pT308AKT, AKT, pT180/Y182, pT183/Y185 P38MAPK, pP38MAPK, pT202/Y204 pERK1/2, ERK1, pT183/Y185, pJNK1/2, JNK1, pT71ATF2, pT581MSK1, pT14 Cdc2, Cdc2, pT68Chk2 (cell signaling), pT334MAPKAPK, pS82HSP27 (Cell Signaling Technology, Danvers, Mass.), α-tubulin (Biomarkers, 1:50,000), Cyclin B1 (Santa Cruz Biotechnologies) and horseradish peroxidase-conjugated anti-rabbit IgG and anti-mouse IgG (1:5,000, Pierce).
Densitometric quantifications were carried out using ImageJ software (NIMH).
[…] The family of MAPK enzymes plays a pivotal role in cell growth, survival and cellular stress responses. […]

[1] = tested on: Arabidopsis thaliana wild type root tips; assay: Root-tip structure and cellular morphology; type: in vivo; settings: WT seedlings
Description: Seeds of homozygous lines of Arabidopsis thaliana wild type (WT; Columbia; Col-0) and max2-1 mutant (http://abrc.osu.edu/) were surface-sterilized and germinated on 1/2 Murashige and Skoog (MS) plates supplemented with 1% sucrose and solidified with 0.7% agar. Plates were incubated vertically in the dark at 4° C. for two days to synchronize germination. Three days after germination, seedlings were gently transferred using forceps to 1/2 MS plates containing various concentrations of GR-24 as a mixture of four diastereomers: (±)-GR-24 and (±)-2′-epi-GR-24. The root tip of the transferred seedling was marked on the plates. The plates remained unsealed to prevent accumulation of gases (e.g., ethylene), and were positioned in an upright 45° position, and incubated at 22° C. with a light intensity of […] m-2 s-1 provided by white fluorescent tubes and under a photoperiod of 16 hours exposure to light/8 hours in the dark for 6-12 days. […] GR-24, ST-357 and ST-362 were initially dissolved in acetone to give a 4.5 mM, 10 μM and 10 μM solutions, respectively, which were then further diluted with double-distilled sterile water (DDW). […] Where differences were recorded between non-treated and acetone controls, the comparison was made between GR-24, ST-357 and ST-362-treated and acetone-treated roots. […]

CC1=CC(O/C=C2/C(=O)c3c(c4cc(-c5scc6c5OCCO6)ccc4n3C)C2C)OC1=O (stereo not shown) [ST-362, (2E)-2-[(2,5-dihydro-4-methyl-5-oxofuran-2-yloxy)methylene]-1,2-dihydro-7-(2,3-dihydrothieno[3,4-b][1,4]dioxin-7-yl)-1,4-dimethyl-cyclopenta[b]indole-3-(4H)-one]
Concentrations resulting in increased nuclear condensation and fragmentation (indicative of apoptosis) (MDA-MB-231 cells): 10-15 ppm and 5-10 ppm

CC1=CC(O/C=C2\Cc3c(n(C)c4cc(-c5cccs5)ccc34)C2=O)OC1=O (racemic) [MEB-55, (±) 2E-4-methyl-2-(4-methyl-5-oxo-2,5-dihydrofuran-2-yloxymethylene)-6-thiophen-2-yl-1,4-dihydro-2H-cyclopenta[b]indol-3-one]
Percentage of late apoptotic cells (Annexin V+/PI+) (HCT116 cells; 10 ppm): 62%
Percentage of late apoptotic cells (Annexin V+/PI+) (HCT116 cells; 15 ppm): 85%
pAKT levels decrease (pAKT; DU145, 8 hours): 6 fold
pAKT levels (pAKT; DU145, 24 hours): undetectable levels

CC1=C[C@H](O/C=C2/C(=O)O[C@@H]3c4ccccc4C[C@H]23)OC1=O (relative stereo) [GR-24, (3aR*,8bS*,E)-3-(((R*)-4-methyl-5-oxo-2,5-dihydrofuran-2-yloxy)methylene)-3,3a,4,8b-tetrahydro-2H-indeno[1,2-b]furan-2-one]
Root tip morphology ([1]; 13.5 μM exogenously supplied): deformation of the root tips
Starch granules in the columella cells ([1]; 27 μM): abolished the starch granules
